Test results from the supplement of paper PMC13380429.

Tests used:
Conditions in all cases: 72 h
[1] = test system: Caco-2; experiment: cell viability relative to DMSO; higher = less toxic
[2] = test system: Calu-3; experiment: as above
[3] = test system: HepG2; experiment: as above
[4] = test system: U2OS; experiment: as above
[5] = test system: Vero E6; experiment: as above
[6] = test system: Caco-2; experiment: relative viability EC50 (midpoint between 100% and the lowest measured viability); higher = less toxic
[7] = test system: Calu-3; experiment: as above
[8] = test system: HepG2; experiment: as above
[9] = test system: U2OS; experiment: as above
[10] = test system: Vero E6; experiment: as above
[11] = test system: Caco-2; experiment: drug sensitivity score (DSS) for viability; higher = more toxic; extreme values may be limits of the assay
[12] = test system: Calu-3; experiment: as above
[13] = test system: HepG2; experiment: as above
[14] = test system: U2OS; experiment: as above
[15] = test system: Vero E6; experiment: as above

Row | Compound | cell viability ([1]; 1 nM) | cell viability ([1]; 10 nM) | cell viability ([1]; 100 nM) | cell viability ([1]; 1000 nM) | cell viability ([1]; 10000 nM) | cell viability ([2]; 1 nM) | cell viability ([2]; 10 nM) | cell viability ([2]; 100 nM) | cell viability ([2]; 1000 nM) | cell viability ([2]; 10000 nM) | cell viability ([3]; 1 nM) | cell viability ([3]; 10 nM) | cell viability ([3]; 100 nM) | cell viability ([3]; 1000 nM) | cell viability ([3]; 10000 nM) | cell viability ([4]; 1 nM) | cell viability ([4]; 10 nM) | cell viability ([4]; 100 nM) | cell viability ([4]; 1000 nM) | cell viability ([4]; 10000 nM) | cell viability ([5]; 1 nM) | cell viability ([5]; 10 nM) | cell viability ([5]; 100 nM) | cell viability ([5]; 1000 nM) | cell viability ([5]; 10000 nM) | relative viability EC50 [6] | relative viability EC50 [7] | relative viability EC50 [8] | relative viability EC50 [9] | relative viability EC50 [10] | drug sensitivity score [11] | drug sensitivity score [12] | drug sensitivity score [13] | drug sensitivity score [14] | drug sensitivity score [15]
1 | CN1CCN(C(=O)c2cc3cc(Cl)ccc3[nH]2)CC1 | 103% | 107% | 102% | 89.9% | 109% | 110% | 89.7% | 106% | 93.7% | 93.8% | 98.1% | 104% | 92.5% | 116% | 94.8% | 99.9% | 100% | 104% | 103% | 95.6% | 97.3% | 96.3% | 98.6% | 100% | 99.8% | > 10 µM | > 10 µM | > 10 µM | > 10 µM | > 10 µM | 0 | 0 | 0 | 0 | 0
2 | CCCCC(CC)CNC(=N)NC(=N)NCCCCCCNC(=N)NC(=N)NCC(CC)CCCC (stereo not given) [alexidine] | 94.6% | 99.3% | 105% | 101% | 1.2% | 97.1% | 105% | 104% | 103% | 105% | 106% | 93.2% | 105% | 50.7% | 6% | 93.6% | 91.8% | 99.3% | 91% | 3.9% | 108% | 106% | 93.3% | 109% | 32.8% | 3.22 µM | > 10 µM | 0.964 µM | 2.39 µM | 3.73 µM | 5.4 | 0 | 11.2 | 6.8 | 3.1
3 | CCCCn1c(=O)c2[nH]c(C34CC5CC(CC3C5)C4)nc2n(CCCO)c1=O [PSB-36] | 96.5% | 102% | 98% | 101% | 91.9% | 99% | 93.4% | 98.7% | 91% | 80.4% | 105% | 95.4% | 103% | 99.3% | 97.3% | 98.5% | 98.9% | 88.6% | 89.1% | 86% | 99.3% | 93.5% | 98.1% | 84.9% | 100% | > 10 µM | > 10 µM | > 10 µM | > 10 µM | > 10 µM | 0 | 1.1 | 0 | 1.7 | 0
4 | Cc1cc(/C=C/c2ccc3cc(N(C)C)ccc3[n+]2C)c(C)n1-c1ccccc1 [pyrvinium-pamoate] | 107% | 93% | 102% | 46.9% | 13.3% | 105% | 101% | 99.3% | 63% | 9.3% | 104% | 110% | 98% | 42% | 9.6% | 107% | 106% | 103% | 60% | 3.8% | 106% | 97.4% | 100% | 78% | 10.6% | 0.834 µM | 1.16 µM | 0.745 µM | 1.15 µM | 1.56 µM | 11.1 | 9.9 | 11.9 | 10.6 | 8.4
5 | C/C(O)=C(\C#N)C(=O)Nc1cc(Br)ccc1Br [LFM-A13] | 99.6% | 99.5% | 90.1% | 100% | 92.1% | 92.8% | 99.6% | 103% | 100% | 94.7% | 105% | 99.7% | 99.5% | 99% | 101% | 102% | 103% | 97.3% | 104% | 96.4% | 112% | 80.5% | 99% | 96.3% | 105% | > 10 µM | > 10 µM | > 10 µM | > 10 µM | > 10 µM | 0 | 0 | 0 | 0 | 0
6 | CC[C@H](CO)Nc1nc(NCc2ccc(-c3ccccn3)cc2)c2ncn(C(C)C)c2n1 [CR8-(R)] | 101% | 97.1% | 86.5% | 34.5% | 34.1% | 104% | 80% | 87% | 31.3% | 39.9% | 88.7% | 102% | 17.2% | 0.7% | 8.8% | 100% | 93.3% | 99.8% | 0.2% | 4.8% | 90.2% | 99.3% | 85.8% | 2.9% | 9.3% | 0.172 µM | 0.184 µM | 0.0531 µM | 0.315 µM | 0.201 µM | 14.3 | 14.6 | 27.5 | 17.9 | 19.9
7 | N[C@@H]1CN(c2c(F)cc3c(=O)c(C(=O)O)cn([C@@H]4C[C@@H]4F)c3c2Cl)CC12CC2 [sitafloxacin] | 95.2% | 95.6% | 91.6% | 106% | 97.2% | 98.5% | 94% | 98% | 96.7% | 93.9% | 107% | 101% | 97.5% | 110% | 108% | 104% | 96.3% | 96% | 95.8% | 96.8% | 91.3% | 98% | 91.6% | 99% | 106% | > 10 µM | > 10 µM | > 10 µM | > 10 µM | > 10 µM | 0 | 0 | 0 | 0 | 0
8 | O=C(c1cccc(Br)c1)N1CCC(N2CCCC2)CC1 [UNC926] | 99.8% | 98.4% | 102% | 100% | 92.8% | 93.7% | 90.2% | 113% | 92.6% | 96.4% | 100% | 104% | 90.4% | 104% | 108% | 102% | 97.2% | 99.5% | 102% | 101% | 90.9% | 101% | 91.5% | 96.4% | 107% | > 10 µM | > 10 µM | > 10 µM | > 10 µM | > 10 µM | 0 | 0 | 0 | 0 | 0
9 | CCCCCCCCCCC(=O)O[C@H]1CC[C@H]2[C@@H]3CCC4=CC(=O)CC[C@]4(C)[C@H]3CC[C@]12C [Testosterone (undecanoate)] | 87.3% | 92.9% | 104% | 96.7% | 91.5% | 103% | 94.7% | 96.5% | 94.4% | 100% | 95.6% | 106% | 92.4% | 99.4% | 96.9% | 99.8% | 94.4% | 102% | 99.4% | 97.7% | 98.5% | 97.2% | 99.2% | 95.5% | 94.9% | > 10 µM | > 10 µM | > 10 µM | > 10 µM | > 10 µM | 0 | 0 | 0 | 0 | 0
10 | CCCCCCCCCCCC[N+](C)(C)CCOc1ccccc1 [domiphen] | 85.6% | 99.3% | 95% | 101% | 11.1% | 90.9% | 92.7% | 91.5% | 102% | 26.8% | 103% | 95.3% | 100% | 94% | 30% | 93.6% | 102% | 94.9% | 95.7% | 9.5% | 100% | 98.8% | 96.6% | 93% | 83.8% | 3.22 µM | 3.31 µM | 2.46 µM | 2.8 µM | > 10 µM | 4.9 | 3.9 | 4.8 | 5.6 | 0.5
11 | Cn1c(=O)n(-c2ccc(C(C)(C)C#N)cc2)c2c3cc(-c4cnc5ccccc5c4)ccc3ncc21 [NVP-BEZ235] | 98.6% | 102% | 85.2% | 40.1% | 40.3% | 95.4% | 98.5% | 77.2% | 40.6% | 28.7% | 99.7% | 110% | 98.4% | 71.8% | 30.1% | 101% | 99.9% | 98.9% | 37.9% | 20.7% | 98.4% | 102% | 93.9% | 57.5% | 38.1% | 0.156 µM | 0.209 µM | 1.19 µM | 0.585 µM | 0.552 µM | 13.4 | 13.7 | 7.5 | 11.7 | 8.8
12 | CC1CCC(NC(=O)N(CCCl)N=O)CC1 (stereo not given) [semustine] | 99.1% | 103% | 104% | 91.1% | 91.7% | 98.5% | 110% | 87% | 97.2% | 99.4% | 96.3% | 108% | 92.3% | 107% | 91.8% | 98.8% | 96.6% | 99.6% | 99.5% | 99.9% | 106% | 99.6% | 105% | 104% | 99.8% | > 10 µM | > 10 µM | > 10 µM | > 10 µM | > 10 µM | 0 | 0 | 0 | 0 | 0
13 | O=C/C=C/c1ccccc1 [cinnamaldehyde] | 103% | 94.2% | 96.9% | 97.6% | 101% | 90.3% | 105% | 105% | 95.1% | 102% | 97.8% | 100% | 108% | 108% | 97.5% | 106% | 99.2% | 98.6% | 96.8% | 99.4% | 92.3% | 99.5% | 96.7% | 98.7% | 95.9% | > 10 µM | > 10 µM | > 10 µM | > 10 µM | > 10 µM | 0 | 0 | 0 | 0 | 0
14 | [NH-]c1c[n+](N2CCOCC2)no1 [linsidomine] | 102% | 96.1% | 95.8% | 96.1% | 89.4% | 100% | 96% | 105% | 94.3% | 116% | 96.9% | 106% | 97.7% | 96.8% | 104% | 105% | 98.8% | 100% | 96.3% | 101% | 98.9% | 99.3% | 95.6% | 100% | 91.1% | > 10 µM | > 10 µM | > 10 µM | > 10 µM | > 10 µM | 0 | 0 | 0 | 0 | 0
